Reference: US6492374B2, “Benzofuran derivatives, their preparation and use” (H. Lundbeck A/S, priority 1998, dated 2002)
pIC50: −log10 of the molar value.

How the values were obtained:
[1] = molecular target: T1, cloned human 5-HT1A receptors (Homo sapiens, UniProt P08908); experiment: Inhibition of 3H-5-CT binding to human 5-HT1A receptors; details: cloned human 5-HT1A receptors expressed in HeLa cells (HA7)
T1 construct: expressed in transfected cells; host or cells: HeLa cells (HA7), stably transfected; cell homogenate
T1 sequence (P08908 1-422): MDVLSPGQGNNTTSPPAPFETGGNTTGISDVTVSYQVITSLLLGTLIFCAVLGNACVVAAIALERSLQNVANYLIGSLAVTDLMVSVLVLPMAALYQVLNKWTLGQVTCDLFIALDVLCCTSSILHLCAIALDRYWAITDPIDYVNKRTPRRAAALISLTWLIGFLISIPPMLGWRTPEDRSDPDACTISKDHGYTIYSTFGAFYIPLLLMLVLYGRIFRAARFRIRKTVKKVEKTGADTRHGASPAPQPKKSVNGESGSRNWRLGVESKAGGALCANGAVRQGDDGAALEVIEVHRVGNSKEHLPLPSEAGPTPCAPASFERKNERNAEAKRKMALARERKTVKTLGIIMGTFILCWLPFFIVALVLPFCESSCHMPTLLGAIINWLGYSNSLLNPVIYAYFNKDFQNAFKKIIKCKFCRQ
Method: Inhibition of ^3H-5CT Binding to Human 5-HT1A Receptors
Human 5-HT1A receptors (40 μg of cell homogenate) were incubated for 15 minutes at 37° C. in 50 mM Tris buffer at pH 7.7 in the presence of ^3H-5-CT. Non-specific binding was determined by including 10 μM of metergoline. The reaction was terminated by rapid filtration through Unifilter GF/B filters on a Tomtec Cell Harvester. Filters were counted in a Packard Top Counter.

[2] = test system: serotonin reuptake (3H-5-HT uptake into whole rat brain synaptosomes); experiment: Inhibition of 3H-5-HT uptake into rat brain synaptosomes; type: biochemical
Method: Inhibition of ^3H-5HT Uptake Into Rat Brain Synaptosomes
Using this method, the ability of drugs to inhibit the accumulation of ^3H-5-HT into whole rat brain synaptosomes is determined in vitro.

SMILES | pIC50 [1] | pIC50 [2] | Inhibition of serotonin reuptake % inhibition at 100 nM [2] | inhibition at 0.1 µM ([1]; read-out: Inhibition of 3H-5-CT binding % inhibition at 100 nM, at 100 nM)
C=CCN(CCCC1(c2ccc(F)cc2)OCc2cc(C#N)ccc21)CCc1c[nH]c2ccccc12 (stereo not drawn) [Compound 4h, 1-[3-[[2-(1H-Indolyl-3-yl)ethyl](prop-2-en-1-yl)amino]propyl]-1-(4-fluorophenyl) 1,3-dihydroisobenzofuran-5carbonitrile] | 8.49 | 7.16 | – | –
C=CCN(CCCC1(c2ccc(F)cc2)OCc2cc(C#N)ccc21)CCOc1ccccc1 (stereo not drawn) [Compound 4i, 1-(4-Fluorophenyl)-1-[3-[[2-phenoxyethyl](prop-2-en-1-yl)amino]propyl]-1,3-dihydroisobenzofuran-5carbonitrile] | 8.72 | – | 26% inh. at 100 nM | –
COc1ccccc1CCCN(C)CCCC1(c2ccc(F)cc2)OCc2cc(C#N)ccc21 (stereo not drawn) [Compound 4j, 1-(4Fluorophenyl)-1-[3-[[3-(2-methoxyphenyl)propyl]methylamino]propyl]-1,3-dihydroisobenzofuran-5-carbonitrile] | 8.21 | 7.11 | – | –
C=CCN(CCCc1ccccc1OC)CCCC1(c2ccc(F)cc2)OCc2cc(C#N)ccc21 (stereo not drawn) [Compound 4k, 1-(4-Fluorophenyl)-1-[3-[[3-(2-methoxyphenyl)propyl](prop-2-en-1-yl)amino]propyl]-1,3-dihydroisobenzofuran-5-carbonitrile] | 9.38 | 7.00 | – | –
C=CCN(CCCOc1ccccc1OC)CCCC1(c2ccc(F)cc2)OCc2cc(C#N)ccc21 (stereo not drawn) [Compound 4n, 1-(4-Fluorophenyl)-1-[3-[[3-(2-methoxyphenoxy)propyl](prop-2-en-1-yl)amino]propyl]-1,3-dihydroisobenzofuran-5-carbonitrile] | 7.85 | – | 39% inh. at 100 nM | –
COc1cccc(OCCCN(C)CCCC2(c3ccc(F)cc3)OCc3cc(C#N)ccc32)c1 (stereo not drawn) [Compound 4o, 1-(4-Fluorophenyl)-1-[3-[[3-(3-methoxyphenoxy)propyl]methylamino]propyl]-1,3-dihydroisobenzofuran-5-carbonitrile] | 7.59 | 7.14 | – | –
C=CCN(CCCOc1cccc(OC)c1)CCCC1(c2ccc(F)cc2)OCc2cc(C#N)ccc21 (stereo not drawn) [Compound 4p] | 7.72 | – | 6% inh. at 100 nM | –
CN(CCCC1(c2ccc(F)cc2)OCc2cc(C#N)ccc21)CCOCc1ccccc1 (stereo not drawn) [Compound 4q, 1-[3-[(2-Benzyloxyethyl)methylamino]propyl]-1-(4-fluorophenyl)-1,3-dihydroisobenzofuran-5-carbonitrile] | 7.80 | – | 60% inh. at 100 nM | –
C=CCN(CCCC1(c2ccc(F)cc2)OCc2cc(C#N)ccc21)CCOCc1ccccc1 (stereo not drawn) [Compound 4r, 1-[3-[(2-Benzyloxyethyl)(prop-2-en-1-yl)amino]propyl]-1-(4-fluorophenyl)-1,3-dihydroisobenzofuran-5-carbonitrile] | 7.96 | – | 19% inh. at 100 nM | –
CN(CCCc1c[nH]c2ccccc12)CCCC1(c2ccc(F)cc2)OCc2cc(C#N)ccc21 (stereo not drawn) [Compound 4s, 1-[3-[[3-(1H-Indol-3-yl)propyl]methylamino]propyl]-1-(4-fluorophenyl)-1,3-dihydroisobenzofuran-5-carbonitrile] | 7.52 | 7.46 | – | –
C=CCN(CCCc1c[nH]c2ccccc12)CCCC1(c2ccc(F)cc2)OCc2cc(C#N)ccc21 (stereo not drawn) [Compound 4t, 1-[3-[[3-(1H-Indol-3-yl)propyl](prop-2-en-1-yl)amino]propyl]-1-(4-fluorophenyl)-1,3-dihydroisobenzofuran-5-carbonitrile] | – | – | 73% inh. at 100 nM | 69%
CN(CCCc1c[nH]c2ccc(Br)cc12)CCCC1(c2ccc(F)cc2)OCc2cc(C#N)ccc21 (stereo not drawn) [Compound 12aa, 1-[3-[[3-(5-Bromo-1H-indol-3-yl)propyl]methylamino]propyl]-1-(4-fluorophenyl)-1,3-dihydroisobenzofuran-5-carbonitrile] | 7.80 | – | 37% inh. at 100 nM | –
CCN(CCCC1(c2ccc(F)cc2)OCc2cc(C#N)ccc21)CCc1c[nH]c2ccc(Br)cc12 (stereo not drawn) [Compound 12ab, 1-[3-[[2-(5-Bromo-1H-indol-3-yl)ethyl]ethylamino]propyl]-1-(4-fluorophenyl)-1,3-dihydroisobenzofuran-5-carbonitrile] | 7.70 | – | 50% inh. at 100 nM | –
CCN(CCCc1c[nH]c2ccc(Br)cc12)CCCC1(c2ccc(F)cc2)OCc2cc(C#N)ccc21 (stereo not drawn) [Compound 12ad, 1-(3-[[3-(5-Bromo-1H-indol-3-yl)propyl]ethylamino]propyl]-1-(4fluorophenyl)-1,3-dihydroisobenzofuran-5-carbonitrile] | 7.68 | – | 35% inh. at 100 nM | –
CCN(CCCC1(c2ccc(F)cc2)OCc2cc(C#N)ccc21)CCc1c[nH]c2ccc(I)cc12 (stereo not drawn) [Compound 12ae] | 7.96 | – | 49% inh. at 100 nM | –
CCN(CCCc1c[nH]c2ccc(I)cc12)CCCC1(c2ccc(F)cc2)OCc2cc(C#N)ccc21 (stereo not drawn) [Compound 12af, 1-[3-[Ethyl[3-(5-iodo-1H-indol-3-yl)propyl]amino]propyl]-1-(4-fluorophenyl)-1,3-dihydroisobenzofuran-5-carbonitrile] | 7.51 | – | 38% inh. at 100 nM | –
Cc1ccc2[nH]cc(CCCN(C)CCCC3(c4ccc(F)cc4)OCc4cc(F)ccc43)c2c1 (stereo not drawn) [Compound 12c, 5-Fluoro-1-[3-[[3-(5-methyl-1H-indol-3-yl)propyl]methylamino]propyl]-1-(4-fluorophenyl)-1,3-dihydroisobenzofuran] | 7.72 | 7.77 | – | –
CN(CCCc1c[nH]c2c(F)cccc12)CCCC1(c2ccc(F)cc2)OCc2cc(F)ccc21 (stereo not drawn) [Compound 12d, 5-Fluoro-1-[3-[[3-(7-fluoro-1H-indol-3-yl)propyl]methylamino]propyl]-1-(4-fluorophenyl)-1,3dihydroisobenzofuran] | 7.51 | 7.92 | – | –
CCN(CCCc1c[nH]c2ccccc12)CCCC1(c2ccc(F)cc2)OCc2cc(C#N)ccc21 (stereo not drawn) [Compound 12f] | 8.33 | 7.89 | – | –
CN(CCCc1c[nH]c2ccc(F)cc12)CCCC1(c2ccc(F)cc2)OCc2cc(C#N)ccc21 (stereo not drawn) [Compound 12i, 1-[3-[[3-(5-Fluoro-1H-indol-3-yl)propyl]methylamino]propyl]-1-(4-fluorophenyl)-1,3-dihydroisobenzofuran-5-carbonitrile] | 7.57 | 7.70 | – | –
CCN(CCCC1(c2ccc(F)cc2)OCc2cc(C#N)ccc21)CCc1c[nH]c2ccc(F)cc12 (stereo not drawn) [Compound 12j, 1-[3-[Ethyl[2-(5-fluoro-1H-indol-3-yl)ethyl]amino]propyl]-1-(4fluorophenyl)-1,3-dihydroisobenzofuran-5-carbonitrile] | 8.10 | 7.85 | – | –
CCN(CCCC1(c2ccc(F)cc2)OCc2cc(C#N)ccc21)CCc1c[nH]c2c(F)cccc12 (stereo not drawn) [Compound 12k] | 8.44 | 8.08 | – | –
CCN(CCCc1c[nH]c2ccc(C)cc12)CCCC1(c2ccc(F)cc2)OCc2cc(C#N)ccc21 (stereo not drawn) [Compound 12o, 1-[3-[Ethyl[3-(5-methyl-1H-indol-3-yl)propyl]amino]propyl]-1-(4-fluorophenyl)-1,3-dihydroisobenzofuran-5-carbonitrile] | 8.21 | – | 49% inh. at 100 nM | –
CCN(CCCc1c[nH]c2c(F)cccc12)CCCC1(c2ccc(F)cc2)OCc2cc(C#N)ccc21 (stereo not drawn) [Compound 12p, 1-[3-[Ethyl[3-(7-fluoro-1H-indol-3-yl)propyl]amino]propyl]-1-(4-fluorophenyl)-1,3-dihydroisobenzofuran-5carbonitrile] | 7.72 | 7.96 | – | –
CCN(CCCc1c[nH]c2ccc(F)cc12)CCCC1(c2ccc(F)cc2)OCc2cc(C#N)ccc21 (stereo not drawn) [Compound 12q, 1-[3-[Ethyl[3-(5-fluoro-1H-indol-3-yl)propyl]amino]propyl]-1-(4-fluorophenyl)-1,3-dihydroisobenzofuran-5carbonitrile] | 7.92 | 8.20 | – | –
CN(CCCc1c[nH]c2ccc(Cl)cc12)CCCC1(c2ccc(F)cc2)OCc2cc(C#N)ccc21 (stereo not drawn) [Compound 12r, 1-[3-[[3-(5-Chloro-1H-indol-3-yl)propyl]methylamino]propyl]-1-(4-fluorophenyl)-1,3-dihydroisobenzofuran-5-carbonitrile] | 7.80 | – | 47% inh. at 100 nM | –
CCN(CCCC1(c2ccc(F)cc2)OCc2cc(C#N)ccc21)CCc1c[nH]c2c(Cl)cccc12 (stereo not drawn) [Compound 12s, 1-[3-[[2-(7-Chloro-1H-indol-3-yl)ethyl]ethylamino]propyl]-1-(4-fluorophenyl)-1,3-dihydroisobenzofuran-5-carbonitrile] | 8.11 | 7.74 | – | –
